Data taken from a melting point compilation (Tetko et al.; mined from patent text by program, amines drawn as free bases though some values may be those of a salt).

Row | Structure (SMILES) | melting point [°C]
1 | COc1cc(-c2nc(-c3ccc(N(C)C)cc3)c(-c3ccc(N(C)C)cc3)[nH]2)cc(OC)c1O | 258 to 260
2 | CCOC(=O)Cn1c(C(=O)OCC)cc(=O)c2cc(O)c(=O)ccc21 | 186 to 188
3 | CC12CC(=O)C3C(CCC4CC(=O)CCC43C)C1CCC2C(=O)CBr (configuration not stated) | 170
4 | CCCc1c(OCc2ccccc2)ccc2c(=O)cc(C(=O)OCC)[nH]c12 | 121 to 122
5 | COc1cc(C(C)=O)ccc1OCCCN1CCN(c2n[nH]c3ccccc23)CC1 | 155 to 157
6 | COCOc1cc(/C=C/S(=O)(=O)NC(=O)OC(C)(C)C)n(Cc2ccc(Cl)cc2Cl)n1 | 139 to 140
7 | Cc1noc(NS(=O)(=O)c2ccccc2-c2ccccc2)c1C | 154 to 155
8 | CCn1ncc2c3ncn(CCC(C)C)c(=O)c3cnc21 | 165 to 167
9 | CS(=O)(=O)c1ccc(-c2cnn(CC(F)(F)F)c(=O)c2-c2ccc(Cl)c(Cl)c2)cc1 | 197 to 198
10 | COc1ccc(-c2[nH]nc3c2C(=O)c2c(NC(=O)CN4CCC(C(N)=O)CC4)cccc2-3)cc1 | > 300
11 | CCCCc1nn(CC(F)(F)F)c(C(=O)O)c1Cc1ccc2oc(-c3ccccc3-c3nnn[nH]3)c(Br)c2c1 | 216 to 220
12 | CC1(C)CCC(C)(C)c2cc(-c3cc(-c4ccc(C=O)cc4)on3)ccc21 | 179 to 180
13 | O=C1CC(Nc2ccccc2)C(=O)N1c1ccccc1 (configuration not stated) | 211 to 214
14 | CC(CO)c1ccc2c(c1)Cc1ccccc1O2 (configuration not stated) | 86 to 89
15 | CCCc1cc(OC)ccc1-c1noc2cc(OC)ccc12 | 71 to 72
16 | Cc1nc2c(o1)-c1c(SC(C)C)sc(C(=O)O)c1CC2 | 277 to 278
17 | O=C1CSC(C(=O)Nc2ccc(Cl)cc2)Cc2ccc(Cl)cc21 (configuration not stated) | 235 to 236
18 | COc1cc(C)c2[nH]ccc2c1C(C)(N)c1nc2cc(C#N)ccc2[nH]1 (single isomer, unassigned; (-)) | 201
19 | COc1cc2c(cc1OC)CN(CCCSc1ccc(NC(=O)c3cccc4c(=O)c5cccc(C)c5[nH]c34)cc1)CC2 | 155
20 | COc1ccc2sc(C(=O)OCC(C)(C)C(=O)C(C)(C)C)cc2c1 | 74 to 75.5
21 | CC(C)(C)OC(=O)CCC1CC(O)C(=O)N1 (configuration not stated) | 94 to 95
22 | CCOc1cc(NCCO)c([N+](=O)[O-])cc1O | 180
23 | C=C(NC(C)=O)c1ccc(F)cn1 | 61 to 62.2
24 | CC1(C)OC(=O)C(Sc2ccccc2)=C1c1ccc(S(C)(=O)=O)cc1 | 98 to 114

Row | Structure (SMILES) | melting point [°C]
25 | COP(=S)(NNC(C)(C)C)OC | 51 to 54
26 | CSc1nn(C(=O)NC(C)(C)C)c(=O)n1N | 134
27 | Cc1cc(C)c(C)c(OC(C)(C)C(=O)O)c1 | 91 to 94
28 | CON=C(C(C)=O)C(=O)N(C)C | 73.5 to 75
29 | COc1cccc(C(N)=O)c1[N+](=O)[O-] | 212 to 214
30 | CN1CCC(C2c3ccccc3C=Cc3ccc(Br)cc32)CC1 (single isomer, unassigned; (+)) | 178 to 180
31 | CCOC(=O)C(=CNC1CC1)C(=O)c1cc(F)c(Cl)cc1Cl | 89 to 90
32 | COC(=O)c1sc2ccccc2c1S(N)(=O)=O | 150 to 154
33 | CC1(C)CCC(C)(C)c2cc3cc(-c4ccc(C(=O)O)s4)ccc3cc21 | 254 to 255
34 | CC1CCCCN1c1cc(F)cc(C(=O)Nc2ccc(OCCN3CCOCC3)c3ccccc23)c1 (configuration not stated) | 75 to 78
35 | Cn1ncc(-c2ccccn2)c1S(N)(=O)=O | 113 to 114
36 | Cc1ccccc1Oc1nc(Cl)cc(Cl)n1 | 78 to 79
37 | CC(=O)NC(=S)N1CCSC1c1ccccc1OCCN1CC=C(c2cccc(F)c2)CC1 (configuration not stated) | 135 to 136
38 | CC(=O)Oc1cc(Cl)ccc1C(=O)NCCO[N+](=O)[O-] | 75 to 77
39 | CN(C)CCc1cccc2ccc(-c3ccccc3CNS(C)(=O)=O)cc12 | 151 to 154
40 | O=C(NCCCc1ccccc1)NCc1ccccn1 | 89 to 90
41 | O=C1C(=O)c2ccccc2C2=C1SCC1(CCN(Cc3ccccc3)CC1)O2 | 170 to 172
42 | OC1C(COCC(F)(F)F)OC(n2cnc3c(NC4CCCC4)ncnc32)C1O (configuration not stated) | 74 to 76
43 | O=C(N[C@H]1CN2CCC1CC2)C(O)(c1ccccc1)C1CCCC1 (some centres not stated) | 69.8 to 73.3
44 | O=C(Nc1cccc2c(=O)cc(-c3nnn[nH]3)oc12)c1ccc2c(c1)CC(CCCc1ccccc1)O2 (configuration not stated) | 234 to 235
45 | O=C1CC2CCCCC2C(=O)C1C(=O)c1ccc(Cl)cc1[N+](=O)[O-] (configuration not stated) | 112
46 | CC(C)(C)c1cc(SCCc2nnc(N)o2)cc(C(C)(C)C)c1O | 172 to 174
47 | CC(=O)N1CCC(CCC(=O)c2ccc3c(c2)CCO3)CC1 | 93 to 95
48 | Nc1nc2ccc(Cc3ccc(F)cc3)cc2s1 | 162 to 164

Row | Structure (SMILES) | melting point [°C]
49 | COC(=O)c1cn2c3c(c(F)c(F)cc3c1=O)CC(C)N2C (configuration not stated) | 184 to 185
50 | C#Cc1cc(Nc2ncnc3cnc(F)cc23)ccc1Cl | 218 to 222
51 | COc1cc(NCCCCCCN2CCN(c3ccccn3)CC2)c2nccc(C)c2c1 | 78 to 81
52 | O=C1OCCC12Sc1cc(Cl)ccc1C2=O (configuration not stated) | 157 to 158
53 | CC1CCC(C(=O)N(C)C)=C2NC=CC(=O)N21 (configuration not stated) | 78
54 | CC(=O)Nc1cc2c(cc1[N+](=O)[O-])OCO2 | 207 to 208
55 | COc1cc2nc(S(=O)Cc3ncc(C)c(N(C)C)c3Cl)[nH]c2cc1OC (configuration not stated) | 174 to 175
56 | Oc1ccc(-c2cnccn2)cc1 | 216 to 217
57 | C#Cc1cccc(Nc2ncnc3cc(OCCOC(C)=O)c(OCCOC)cc23)c1 | 134 to 135
58 | COC(=O)c1cccc(-c2cccc(Oc3cc(Cl)cc(Cl)c3)n2)c1 | 125 to 126
59 | CCOC(=O)C1=Cc2cc(-c3ccc(C(F)(F)F)cc3)ccc2OCC1 | 107 to 110
60 | CCN(CC)C(=O)c1cc(-c2ccc(OC)cc2)ccc1-c1ccccc1 | 117 to 118
61 | Cc1ccccc1-n1c(C=Cc2ccccc2F)nc2cnccc2c1=O | 211 to 212
62 | Fc1ccc(C(=C2SCCCS2)c2ccc(F)cc2)cc1 | 169 to 171
63 | O=C(c1ccc(F)cc1)C1CCN(CCN(C(=O)c2ccc([N+](=O)[O-])cc2)c2ccccc2)CC1 | 178 to 180
64 | CCOC(=O)c1ncc2[nH]c3cccc(O)c3c2c1COC | 179 to 181
65 | Cc1cc(C#N)cc(C(=O)Nc2ccc(F)c(C)c2)n1 | 177
66 | C(#Cc1ccccn1)CCn1nnc(-c2ccccc2)n1 | 71 to 73
67 | COC(=O)C(Br)c1ccc(S(C)(=O)=O)cc1 (configuration not stated) | 81.8 to 83.3
68 | O=[N+]([O-])c1cc(C2=NOC(c3cc(C(F)(F)F)cc(C(F)(F)F)c3)(C(F)(F)F)C2)ccc1N1C=NNN1 (configuration not stated) | 147 to 149
69 | COc1ccc(Nc2nc(NC3CCCCCC3)nc(N3CCCC3)n2)cc1F | 79
70 | CC(C)Cn1c(=O)[nH]c(=O)c2cc(Cc3cccc4ccccc34)sc21 | 189 to 190
71 | O=Cc1ccccc1-n1nnnc1CC(=O)C(F)(F)F | 128
72 | Cc1c(C(=O)O)cc(O)c2cc(-c3ccc4c(c3)C(C)(C)CCC4(C)C)ccc12 | 266
